Test results published in article PMC5564600 (Oncotarget, 2017).
Read-outs that look alike come from different tables or passages of the source.

Key:
Assay in all cases: biochemical
Assay type in all cases: binding
[1] = target: T1, panel of 442 kinases (Homo sapiens, UniProt P21709); details: EPHA1; for remaining activity at 1 µM: read-out: % of control at 1 µM
T1 construct: purchased Ambit Biosciences (scanMAXX KINOMEscan)
T1 sequence (P21709 26-976): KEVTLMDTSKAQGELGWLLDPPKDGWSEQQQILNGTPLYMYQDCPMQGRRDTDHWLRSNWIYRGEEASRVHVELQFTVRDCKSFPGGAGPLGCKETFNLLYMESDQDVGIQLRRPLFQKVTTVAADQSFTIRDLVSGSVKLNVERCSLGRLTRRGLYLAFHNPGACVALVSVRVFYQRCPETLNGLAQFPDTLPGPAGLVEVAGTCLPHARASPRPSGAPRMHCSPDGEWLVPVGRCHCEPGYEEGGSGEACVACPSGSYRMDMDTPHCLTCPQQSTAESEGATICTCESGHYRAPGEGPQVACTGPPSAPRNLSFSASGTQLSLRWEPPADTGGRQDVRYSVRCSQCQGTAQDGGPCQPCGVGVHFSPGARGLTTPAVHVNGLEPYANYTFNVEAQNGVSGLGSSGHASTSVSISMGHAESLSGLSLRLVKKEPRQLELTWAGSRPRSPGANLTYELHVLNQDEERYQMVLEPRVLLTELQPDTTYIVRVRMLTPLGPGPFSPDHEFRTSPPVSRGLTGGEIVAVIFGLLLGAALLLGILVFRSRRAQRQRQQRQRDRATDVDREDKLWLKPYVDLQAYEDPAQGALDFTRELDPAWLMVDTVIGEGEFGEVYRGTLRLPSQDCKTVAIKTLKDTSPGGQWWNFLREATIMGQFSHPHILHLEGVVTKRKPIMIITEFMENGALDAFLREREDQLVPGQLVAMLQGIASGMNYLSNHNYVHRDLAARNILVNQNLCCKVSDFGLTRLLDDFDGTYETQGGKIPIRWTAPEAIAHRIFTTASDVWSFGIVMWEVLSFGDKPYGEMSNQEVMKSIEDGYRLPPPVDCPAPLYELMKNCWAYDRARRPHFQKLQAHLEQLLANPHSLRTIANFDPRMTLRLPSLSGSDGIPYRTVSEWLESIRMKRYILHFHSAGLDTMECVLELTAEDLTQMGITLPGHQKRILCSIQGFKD

[2] = target: T2, panel of 442 kinases (Homo sapiens, UniProt Q13163); details: kinase MEK5; for remaining activity at 1 µM: read-out: % of control at 1 µM
T2 construct: purchased Ambit Biosciences (scanMAXX KINOMEscan)
T2 sequence (Q13163 1-448): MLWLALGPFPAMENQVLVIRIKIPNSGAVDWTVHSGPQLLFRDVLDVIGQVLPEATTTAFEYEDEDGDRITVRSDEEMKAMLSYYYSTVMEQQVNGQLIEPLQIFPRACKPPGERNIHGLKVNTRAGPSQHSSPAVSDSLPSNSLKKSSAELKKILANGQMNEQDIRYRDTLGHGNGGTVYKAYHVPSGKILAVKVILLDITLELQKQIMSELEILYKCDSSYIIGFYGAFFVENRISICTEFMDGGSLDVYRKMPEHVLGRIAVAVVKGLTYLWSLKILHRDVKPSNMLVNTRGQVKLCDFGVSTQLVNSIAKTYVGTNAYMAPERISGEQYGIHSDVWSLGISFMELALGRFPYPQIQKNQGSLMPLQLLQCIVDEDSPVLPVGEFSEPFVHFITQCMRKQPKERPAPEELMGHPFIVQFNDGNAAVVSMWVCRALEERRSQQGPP

[3] = target: T3, panel of 442 kinases (Homo sapiens, UniProt O14936); details: CASK; for remaining activity at 1 µM: read-out: % of control at 1 µM
T3 construct: purchased Ambit Biosciences (scanMAXX KINOMEscan)
T3 sequence (O14936 1-926): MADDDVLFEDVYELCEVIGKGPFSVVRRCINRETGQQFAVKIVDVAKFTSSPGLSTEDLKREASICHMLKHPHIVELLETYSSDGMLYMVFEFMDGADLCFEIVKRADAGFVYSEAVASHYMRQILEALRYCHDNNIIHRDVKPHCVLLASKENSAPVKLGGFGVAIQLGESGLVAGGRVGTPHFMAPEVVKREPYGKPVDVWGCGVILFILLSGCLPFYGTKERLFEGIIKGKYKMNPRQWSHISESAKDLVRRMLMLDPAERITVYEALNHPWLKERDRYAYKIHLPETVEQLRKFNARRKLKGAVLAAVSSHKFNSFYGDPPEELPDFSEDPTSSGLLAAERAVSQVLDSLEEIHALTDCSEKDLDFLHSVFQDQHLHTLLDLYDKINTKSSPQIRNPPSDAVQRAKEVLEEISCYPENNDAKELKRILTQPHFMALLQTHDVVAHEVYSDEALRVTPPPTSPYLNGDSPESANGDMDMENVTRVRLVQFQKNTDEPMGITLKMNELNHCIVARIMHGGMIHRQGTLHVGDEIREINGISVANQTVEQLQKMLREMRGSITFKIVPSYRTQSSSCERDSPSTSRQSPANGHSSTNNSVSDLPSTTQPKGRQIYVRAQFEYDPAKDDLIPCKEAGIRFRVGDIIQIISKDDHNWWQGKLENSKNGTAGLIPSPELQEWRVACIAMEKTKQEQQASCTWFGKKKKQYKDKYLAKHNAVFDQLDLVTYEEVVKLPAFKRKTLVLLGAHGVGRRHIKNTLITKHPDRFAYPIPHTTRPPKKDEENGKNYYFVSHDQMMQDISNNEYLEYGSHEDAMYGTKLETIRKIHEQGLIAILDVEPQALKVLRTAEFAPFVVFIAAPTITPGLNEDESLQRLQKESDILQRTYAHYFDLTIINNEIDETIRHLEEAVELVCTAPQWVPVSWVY

[4] = target: T4, panel of 442 kinases (Homo sapiens, UniProt O14965); details: AURKA; for remaining activity at 1 µM: read-out: % of control at 1 µM
T4 construct: purchased Ambit Biosciences (scanMAXX KINOMEscan)
T4 sequence (O14965 1-403): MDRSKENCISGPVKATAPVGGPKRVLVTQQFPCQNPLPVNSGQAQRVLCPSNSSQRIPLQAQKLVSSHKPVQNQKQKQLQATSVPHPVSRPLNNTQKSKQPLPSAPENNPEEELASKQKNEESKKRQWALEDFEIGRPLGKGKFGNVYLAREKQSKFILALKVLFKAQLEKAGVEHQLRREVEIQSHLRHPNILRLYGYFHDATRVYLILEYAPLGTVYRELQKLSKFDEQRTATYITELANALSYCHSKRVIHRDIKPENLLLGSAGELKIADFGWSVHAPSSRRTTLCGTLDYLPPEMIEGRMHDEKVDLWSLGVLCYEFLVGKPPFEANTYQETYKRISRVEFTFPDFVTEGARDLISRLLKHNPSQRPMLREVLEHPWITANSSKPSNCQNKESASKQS

[5] = target: T5, panel of 442 kinases (Homo sapiens, UniProt Q9UK32)
T5 construct: purchased Ambit Biosciences (scanMAXX KINOMEscan)
T5 sequence (Q9UK32 whole entry): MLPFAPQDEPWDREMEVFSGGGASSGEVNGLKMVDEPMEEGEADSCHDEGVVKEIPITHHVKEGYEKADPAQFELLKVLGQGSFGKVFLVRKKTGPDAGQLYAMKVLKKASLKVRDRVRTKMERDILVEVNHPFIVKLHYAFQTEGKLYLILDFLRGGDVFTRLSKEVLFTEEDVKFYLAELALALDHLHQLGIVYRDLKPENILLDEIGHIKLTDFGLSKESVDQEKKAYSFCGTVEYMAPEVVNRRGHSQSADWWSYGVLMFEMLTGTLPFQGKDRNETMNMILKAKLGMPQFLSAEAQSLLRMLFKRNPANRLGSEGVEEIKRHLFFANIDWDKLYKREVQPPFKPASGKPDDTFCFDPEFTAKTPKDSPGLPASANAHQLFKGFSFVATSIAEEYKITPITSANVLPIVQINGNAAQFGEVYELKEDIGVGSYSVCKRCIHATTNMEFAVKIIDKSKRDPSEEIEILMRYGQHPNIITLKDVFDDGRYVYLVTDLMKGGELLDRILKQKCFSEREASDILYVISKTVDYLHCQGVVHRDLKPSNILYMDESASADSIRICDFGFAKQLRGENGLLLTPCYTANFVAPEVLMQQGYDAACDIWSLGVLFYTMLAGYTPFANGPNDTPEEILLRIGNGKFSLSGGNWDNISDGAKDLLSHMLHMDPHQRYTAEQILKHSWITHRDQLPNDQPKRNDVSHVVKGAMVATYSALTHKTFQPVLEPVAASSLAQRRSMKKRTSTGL

[6] = 10 µM, read-out: % of control at 10 µM
[7] = kinase RSK4(Kin.Dom.1-N-terminal), read-out: RSK4(Kin.Dom.1-N-terminal) (% of control at 1 µM)
[8] = kinase RSK4(Kin.Dom.2-C-terminal), read-out: RSK4(Kin.Dom.2-C-terminal) (% of control at 1 µM)

| Structure (SMILES) | remaining activity at 1 µM [1] | remaining activity at 10 µM [1, 6] | remaining activity at 1 µM [2] | remaining activity at 10 µM [2, 6] | remaining activity at 1 µM [3] | remaining activity at 10 µM [3, 6] | remaining activity at 1 µM [4] | remaining activity at 10 µM [4, 6] | remaining activity at 1 µM [5, 7] | remaining activity at 10 µM ([5]; kinase RSK4(Kin.Dom.1-N-terminal), read-out: RSK4(Kin.Dom.1-N-terminal) (% of control at 10 µM)) | remaining activity at 1 µM [5, 8] | remaining activity at 10 µM ([5]; kinase RSK4(Kin.Dom.2-C-terminal), read-out: RSK4(Kin.Dom.2-C-terminal) (% of control at 10 µM)) |
| --- | --- | --- | --- | --- | --- | --- | --- | --- | --- | --- | --- | --- |
| Nc1cc(C(F)(F)F)c(-c2cc(N3CCOCC3)nc(N3CCOCC3)n2)cn1 [Buparlisib] | 90% | 100% | 88% | 85% | 99% | 100% | 100% | 91% | 99% | 100% | 100% | 100% |
| Cn1c(=O)n(-c2ccc(C(C)(C)C#N)cc2)c2c3cc(-c4cnc5ccccc5c4)ccc3ncc21 [Dactolisib, 2-methyl-2-[4-(3-methyl-2-oxo-8-quinolin-3-yl-2,3-dihydroimidazo[4,5-c]quinolin-1-yl)-phenyl] propionitrile] | 100% |  | 42% |  | 100% |  | 100% |  | 71% |  | 82% |  |
| COc1ncc(-c2ccc3nccc(-c4ccnnc4)c3c2)cc1NS(=O)(=O)c1ccc(F)cc1F [Omipalisib] | 97% |  | 69% |  | 75% |  | 100% |  | 88% |  | 79% |  |
| FC(F)c1nc2ccccc2n1-c1nc(N2CCOCC2)nc(N2CCOCC2)n1 [ZSTK474, 2-(difluoromethyl)-1-[4,6-di(4-morpholinyl)-1,3,5-triazin-2-yl]-1H-benzimidazole] | 99% |  | 99% |  | 87% |  | 100% |  | 81% |  | 91% |  |
